Read-outs that look alike come from different tables or passages of the source.
Tests used:
JAK1 [1] = molecular target: JAK1 (Rattus norvegicus, UniProt G3V9W2); assay: Rat PK/PD assay: rat whole blood ex vivo JAK1 activity (pSTAT3); type: in vivo; conditions: 30 mpk oral
Experimental: (§1) Male Wistar rats, 265-285 grams (Charles River) were used for oral gavage dosing. Dose the animals (Oral gavage) at 1.82 mL/kg (0.5 mL per 275 grams). Formulate the compounds in 1% HEC vehicle containing 0.25% Tween 80 and 0.05% antifoam with 1.1 molar equivalent of methanesulfonic acid to form an in situ salt. Formulate compounds once per week, and store at 4° C. At various time points, obtain rat whole blood via tail vain bleeding in Multivette 600 μl EDTA blood collection tubes (cat#151671100PK100, Sarstedt Inc) and use for ex vivo JAK1 and JAK2 assay. Aliquot 100 ul of blood from each rat into a 96-well round bottom plate. Stimulate whole blood by recombinant IL-6 ([…], and recombinant mouse GM-CSF (cat#415-ML, lot#, R&D) for 12 min at rt. After cytokine stimulation, add whole blood into Lyse/fix (cat#558049, lot#, BD) in minitube rack; mix well 5×. Incubate 10 min at rt. Spin minitube rack at 600 g for 4 min. Aspirate with 12-channel manifold. Transfer contents of minitube rack to 96 well round-bottom plates. Spin down the cells at 3000 rpm for 1 min and discard the supernatant. Mix the cells in the well with 100 ul ice-cold MeOH and incubated on ice for 30 min. Add 150 ul PBS+2% FCS into each well and spin down at 3000 rpm, 2 min. Wash cells with 2× of 250 ul PBS+2% FCS. For cell surface and intracellular staining, mix all antibodies and add into each well and incubate 1 hr at rt in dark. The antibodies used for staining are as following: pSTAT3, Alexa Fluor 647 (cat#4324s, lot, Cell Signaling); pSTAT5, Alexa Fluor 488 (cat#3939s, lot#, Cell Signaling), anti-rat CD4, V450 (cat#561579, lot#. BD); anti-rat CD11b, Percp eFluor710 (cat#12-0110-82, lot#, eBioscience) After staining cells with Abs, wash the plates twice with PBS+2% FCS and finally re-suspend in the same 150 ul of solution. Assess cell viability by Viability Dye 780 (cat#65-0865-14, lot#, eBioscience). Perform the cytometry assay using FORTESSA.

JAK1 [2] = molecular target: T1, JAK1 (Homo sapiens (Human), UniProt P23458); assay: JAK LanthaScreen Kinase Assay (TR-FRET), JAK1 in vitro enzyme assay; type: biochemical; conditions: 20.0 μM ATP
Experimental: (§2) The JAK LanthaScreen™ Kinase Assay (Invitrogen) is used to determine the ability of test compounds to inhibit JAK1, JAK2, and JAK3 kinase activity. These are TR-FRET assay formats that use long-lifetime terbium labeled antibody as the donor species and GFP-STAT1 as the acceptor species. Use the TR-FRET ratio to monitor JAK kinase activity where an increase in phosphorylation of the GFP-STAT1 results in an increase in the TR-FRET ratio. Perform the kinase reaction using a 12.5 μl reaction volume in shallow black 384-well Proxiplate®. Add reagents to obtain final reaction conditions of […], 1.76 mM Triton X-100, ATP (20.0 μM for JAK1 and JAK3 or 5 μM for JAK2) enzyme assays, 10.0 mM MgCl2, 1 mM EGTA and 0.01% Brij-35, […] GFP-STAT1, 14 nM JAK1 enzyme for JAK1, 1.0 nM for JAK2 or 2.5 nM for JAK3 enzyme assays, and 4% DMSO and serial dilutions of test compound (diluted 1:3 from 20,000 to 1 nM). Following ATP/GFP-STAT1 addition, centrifuge the assay plates for 1 minute at 1000 revolutions per minute (RPM). Allow the plates to incubate at RT for 60 minutes and then add 12.5 μl of a stopping buffer containing 20 mM EDTA, 2 nM Terbium-anti-phosphorylated Signal Transducers and Activators of Transcription [phosphorylation Tyrosine 701 amino acid] […] Use ACTIVITYBASE® 4.0 to fit the percent inhibition and ten-point compound concentration data to a four-parameter logistic equation.

JAK3 = JAK3 (Homo sapiens (Human), UniProt P52333); assay: JAK LanthaScreen Kinase Assay (TR-FRET), JAK3 in vitro enzyme assay; type: biochemical; conditions: 20.0 μM ATP
Experimental: as §2

[3] = test system: paw swelling in Lewis rats; assay: Rat collagen-induced arthritis (CIA) model; type: in vivo
Experimental: Rat Collagen-Induced Arthritis (CIA) Model
This protocol uses Lewis rats (weight 150-175 grams) from Charles River. On day 0, anesthetize rats with Isoflurane. On day 1, immunize intradermally with collagen emulsion in two sites on the lower lumbar region, above the base of the tail. Dose volume is a minimum of 0.4 mL per injection site. On day 8, anesthetize rats with Isoflurane and immunize intradermally with collagen emulsion in two sites on the lower lumbar region, above the base of the tail. Enroll rats into treatment groups on day 12, based on inflammation (redness and/or swelling) in their hind paws. Randomize animals for Treatment Phase based on ankle measurement values and body weight using block randomization allocation tool. Record ankle swelling on days 1, 8, and 11 and then three times per week following enrollment up to and including the day of necropsy. Dose compounds orally once a day starting on day 12 (after randomization) up to day 25. The compounds of Examples 6 and 7 were evaluated in the protocol essentially as described above.

JAK1 [4] = molecular target: T1, JAK1; assay: Human whole blood assay: pSTAT3 (JAK1) in lymphocytes, IL6 stimulated; type: cell-based; conditions: IL6, pSTAT3 in CD4+ lymphocytes
From the text: (§3) Human Whole Blood Assays: Determination of pSTAT3 (JAK1) and pSTAT5 (JAK2) in Lymphocytes and Monocytes
(§4) Human whole blood (HWB) assays were developed and validated to determine the JAK1 and JAK2 selectivity of test compounds.
(§5) Dilute the test compounds, 10 points, (1:3) in DMSO 100% and a step down in PBS+0.1% BSA. Use Tofacitinib as a reference compound in each plate, as well as a maximum signal (stimulated wells) and a minimum signal (no stimulated wells) in order to normalize data. Obtain a pool of HWB from 4 different healthy donors. Plate the blood in a 96 well plate using a Tecan Evo 96w and incubate with test compounds for 1 h at RT. After this time of incubation, stimulate HWB with both IL6 (206-IL, R&D System) and GM-CSF (PHC2015, Life Technologies) for 15 more minutes. Add a viability dye (65-0865, eBiosicience) (1:1000) using a Tecan Evo 96w (5×mix).
(§6) The final concentrations in the assay are the following: 100 (μM for compounds, 50 μM for Tofacitinib, 0.1 μg/mL IL6, 0.038 μg/mL GM-CSF and 1% DMSO. Lyse and fix HWB using a Lyse/fix buffer (558049, Becton Dickinson) by adding 900 μL of lysis buffer using Tecan Evo 96w (mix 10× high speed). Incubate HWB in bath at 37° C. for 10 minutes. Centrifuge HWB at 500 G, 8 min and discard supernatant. Add cold MeOH using a Tecan Exo 96w in order to permeabilize cells. Incubate blood cells on ice during 30 min. After this, wash cells 2× using Staining buffer (554656, Becton Dickinson), spin at 3000 rpm, 2 min. discard supernatant, and add the following antibodies: Anti-Human CD4 PE, 1:100 (12-0048, eBioscience), Anti-Human CD33 eFluor® 450, 1:50 (48-0337, eBioscience), Phospho-STAT5 (Tyr694) (C71E5) Rabbit mAb, 1:100 (Alexa Fluor® 488 Conjugate) (3939, Cell Signaling) and Phospho-STAT3 (Tyr705) (D3A7) XP™ Rabbit mAb 1:200, (Alexa Fluor® 647 Conjugate) (4324, Cell Signaling). Incubate the antibodies for 1 h in dark at RT, then wash cells 2× and read on Cytometer Macsquant (Miltenyi Biotec). Gate the data on CD4+ (lymphocytes) and CD4Low CD33Hi (monocytes), to measure the fluorescence intensity from cells expressing pSTAT3 and pSTAT5, respectively. Analyze the data using FlowJo v 10 and then normalize the median of fluorescence versus maximum and minimum signal to determine the IC50s. Use Graph Pad Prism 5™ to represent the dose response curves.

JAK2 [5] = molecular target: T2, JAK2 (Homo sapiens (Human), UniProt O60674); assay: JAK LanthaScreen Kinase Assay (TR-FRET), JAK2 in vitro enzyme assay; type: biochemical; conditions: 5 μM ATP
Experimental: as §2

JAK2 [6] = molecular target: T2, JAK2; assay: Human whole blood assay: pSTAT5 (JAK2) in monocytes, GM-CSF stimulated; type: cell-based; conditions: pSTAT5 in CD4Low CD33Hi monocytes
From the text: as §3, §4, §5, §6

JAK2 [7] = molecular target: JAK2 (Rattus norvegicus (Rat), UniProt Q62689); assay: Rat PK/PD assay: rat whole blood ex vivo JAK2 activity (pSTAT5); type: in vivo; conditions: 30 mpk oral
Experimental: as §1

[8] = test system: paw swelling and bone mineral density loss in Lewis rats; assay: Rat adjuvant-induced arthritis (AIA) model; type: in vivo; conditions: naïve rat as 100% inhibition
Experimental: Rat Adjuvant-Induced Arthritis (AIA) Model
The effects of compounds on polyarthritis inflammation and ankle joint bone erosion can be evaluated in a rat adjuvant-induced arthritis (AIA) model. Use Male Lewis rats with a mean body weight of 185 g for the study. Induce arthritis by intra-dermal injection located at the base of the tail with 100 μL of adjuvant suspended immunization emulsion oil. Randomize animals based on the mean paw thickness and body weight on day 10 into study groups with 8 rats in each group. Prepare compounds in 1% HEC/0.25% P80/0.05% AF in purified water and dose daily via oral gavage starting from day 11 post immunization for 14 days. Quantitate paw thickness with the caliper measurement on both ankles. Assess group differences using a one-way ANOVA followed by Dunnett's post-test for multiple comparisons against vehicle controls. The compound of Example 10 are evaluated in the protocol essentially as described above.

Chain of JAK3 (P52333 whole entry): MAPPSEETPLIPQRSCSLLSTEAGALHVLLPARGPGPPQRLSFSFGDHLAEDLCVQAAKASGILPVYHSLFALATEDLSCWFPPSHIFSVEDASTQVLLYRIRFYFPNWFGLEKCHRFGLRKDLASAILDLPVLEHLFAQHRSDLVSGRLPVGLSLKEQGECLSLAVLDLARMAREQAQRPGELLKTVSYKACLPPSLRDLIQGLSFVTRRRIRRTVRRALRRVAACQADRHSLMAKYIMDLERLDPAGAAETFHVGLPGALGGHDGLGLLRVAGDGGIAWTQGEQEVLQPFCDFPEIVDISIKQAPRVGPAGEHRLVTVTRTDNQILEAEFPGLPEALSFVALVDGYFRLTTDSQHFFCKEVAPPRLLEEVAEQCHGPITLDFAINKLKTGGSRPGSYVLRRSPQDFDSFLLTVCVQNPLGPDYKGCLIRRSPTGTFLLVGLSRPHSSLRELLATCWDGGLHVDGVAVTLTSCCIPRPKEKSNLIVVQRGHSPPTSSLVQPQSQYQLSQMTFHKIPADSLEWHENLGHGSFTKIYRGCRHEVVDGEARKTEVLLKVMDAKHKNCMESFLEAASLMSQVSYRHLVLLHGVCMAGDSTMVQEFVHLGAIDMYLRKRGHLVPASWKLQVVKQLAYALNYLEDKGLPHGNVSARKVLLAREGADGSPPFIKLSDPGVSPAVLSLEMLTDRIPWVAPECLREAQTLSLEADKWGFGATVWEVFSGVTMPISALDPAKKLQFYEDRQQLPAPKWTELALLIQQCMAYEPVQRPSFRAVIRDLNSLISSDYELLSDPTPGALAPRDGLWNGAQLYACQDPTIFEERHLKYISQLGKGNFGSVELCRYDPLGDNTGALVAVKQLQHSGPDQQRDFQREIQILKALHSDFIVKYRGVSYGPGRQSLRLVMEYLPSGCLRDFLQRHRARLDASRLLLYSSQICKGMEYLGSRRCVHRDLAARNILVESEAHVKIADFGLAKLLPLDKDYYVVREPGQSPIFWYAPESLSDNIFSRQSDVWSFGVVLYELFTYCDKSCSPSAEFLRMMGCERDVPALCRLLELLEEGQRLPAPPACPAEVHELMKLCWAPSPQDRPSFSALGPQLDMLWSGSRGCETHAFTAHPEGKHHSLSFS
Chain of JAK1 (Rattus norvegicus, UniProt G3V9W2) (G3V9W2 1-1153): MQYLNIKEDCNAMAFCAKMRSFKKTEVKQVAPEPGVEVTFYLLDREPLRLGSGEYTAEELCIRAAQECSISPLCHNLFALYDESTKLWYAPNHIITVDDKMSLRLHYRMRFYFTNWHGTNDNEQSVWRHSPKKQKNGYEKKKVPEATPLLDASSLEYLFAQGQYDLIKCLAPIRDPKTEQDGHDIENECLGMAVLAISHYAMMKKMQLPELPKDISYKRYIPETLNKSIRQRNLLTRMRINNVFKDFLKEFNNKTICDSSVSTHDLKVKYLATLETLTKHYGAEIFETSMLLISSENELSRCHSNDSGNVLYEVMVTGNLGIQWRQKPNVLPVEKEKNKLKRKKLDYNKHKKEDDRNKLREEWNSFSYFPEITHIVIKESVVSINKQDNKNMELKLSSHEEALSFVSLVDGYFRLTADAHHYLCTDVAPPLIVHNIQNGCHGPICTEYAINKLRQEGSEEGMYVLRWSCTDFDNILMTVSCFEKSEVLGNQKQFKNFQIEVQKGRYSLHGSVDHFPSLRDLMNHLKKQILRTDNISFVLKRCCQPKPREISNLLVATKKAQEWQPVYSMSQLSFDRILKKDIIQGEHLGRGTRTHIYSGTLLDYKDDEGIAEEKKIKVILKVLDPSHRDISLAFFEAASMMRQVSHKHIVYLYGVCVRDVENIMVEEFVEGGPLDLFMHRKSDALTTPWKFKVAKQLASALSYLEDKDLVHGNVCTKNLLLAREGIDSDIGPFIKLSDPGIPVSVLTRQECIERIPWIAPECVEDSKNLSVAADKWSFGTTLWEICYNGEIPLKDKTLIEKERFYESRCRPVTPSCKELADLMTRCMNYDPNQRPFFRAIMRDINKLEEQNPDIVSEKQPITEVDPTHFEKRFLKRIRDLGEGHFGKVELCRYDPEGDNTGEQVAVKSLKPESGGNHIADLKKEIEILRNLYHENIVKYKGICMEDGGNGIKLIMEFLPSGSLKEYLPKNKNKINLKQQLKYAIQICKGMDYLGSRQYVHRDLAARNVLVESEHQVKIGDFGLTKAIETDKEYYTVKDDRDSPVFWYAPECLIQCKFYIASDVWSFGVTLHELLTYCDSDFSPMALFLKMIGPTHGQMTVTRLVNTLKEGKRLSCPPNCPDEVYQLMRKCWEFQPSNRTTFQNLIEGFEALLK
T1 sequence (P23458 whole entry): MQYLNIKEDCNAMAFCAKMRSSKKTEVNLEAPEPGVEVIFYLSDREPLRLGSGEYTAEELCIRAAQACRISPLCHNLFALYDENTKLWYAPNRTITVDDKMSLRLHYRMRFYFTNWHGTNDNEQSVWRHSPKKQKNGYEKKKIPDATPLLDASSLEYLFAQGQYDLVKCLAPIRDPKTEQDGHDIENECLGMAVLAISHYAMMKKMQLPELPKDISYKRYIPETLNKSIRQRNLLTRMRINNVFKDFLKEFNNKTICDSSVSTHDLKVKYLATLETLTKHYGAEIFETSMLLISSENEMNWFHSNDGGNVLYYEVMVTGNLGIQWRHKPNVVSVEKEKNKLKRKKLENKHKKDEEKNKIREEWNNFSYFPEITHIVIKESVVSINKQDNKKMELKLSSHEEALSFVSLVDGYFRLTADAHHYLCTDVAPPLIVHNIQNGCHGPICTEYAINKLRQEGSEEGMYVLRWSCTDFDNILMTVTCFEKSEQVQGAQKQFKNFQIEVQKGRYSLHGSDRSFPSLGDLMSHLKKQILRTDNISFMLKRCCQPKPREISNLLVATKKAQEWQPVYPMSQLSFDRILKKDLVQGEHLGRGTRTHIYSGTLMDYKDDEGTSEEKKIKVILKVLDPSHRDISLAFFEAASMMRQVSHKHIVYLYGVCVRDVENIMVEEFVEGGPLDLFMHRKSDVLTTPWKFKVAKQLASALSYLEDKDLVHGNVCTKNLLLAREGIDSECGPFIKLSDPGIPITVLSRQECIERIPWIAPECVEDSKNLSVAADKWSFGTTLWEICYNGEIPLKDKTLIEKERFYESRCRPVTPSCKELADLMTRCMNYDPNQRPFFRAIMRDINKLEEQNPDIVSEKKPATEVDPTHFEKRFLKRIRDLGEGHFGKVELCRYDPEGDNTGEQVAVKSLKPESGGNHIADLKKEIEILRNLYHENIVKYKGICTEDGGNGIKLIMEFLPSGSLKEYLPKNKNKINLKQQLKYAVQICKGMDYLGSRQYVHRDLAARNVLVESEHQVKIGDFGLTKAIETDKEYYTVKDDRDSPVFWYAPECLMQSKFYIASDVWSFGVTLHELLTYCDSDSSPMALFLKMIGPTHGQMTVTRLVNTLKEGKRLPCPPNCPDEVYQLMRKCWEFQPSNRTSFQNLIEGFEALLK
T2 sequence (O60674 whole entry): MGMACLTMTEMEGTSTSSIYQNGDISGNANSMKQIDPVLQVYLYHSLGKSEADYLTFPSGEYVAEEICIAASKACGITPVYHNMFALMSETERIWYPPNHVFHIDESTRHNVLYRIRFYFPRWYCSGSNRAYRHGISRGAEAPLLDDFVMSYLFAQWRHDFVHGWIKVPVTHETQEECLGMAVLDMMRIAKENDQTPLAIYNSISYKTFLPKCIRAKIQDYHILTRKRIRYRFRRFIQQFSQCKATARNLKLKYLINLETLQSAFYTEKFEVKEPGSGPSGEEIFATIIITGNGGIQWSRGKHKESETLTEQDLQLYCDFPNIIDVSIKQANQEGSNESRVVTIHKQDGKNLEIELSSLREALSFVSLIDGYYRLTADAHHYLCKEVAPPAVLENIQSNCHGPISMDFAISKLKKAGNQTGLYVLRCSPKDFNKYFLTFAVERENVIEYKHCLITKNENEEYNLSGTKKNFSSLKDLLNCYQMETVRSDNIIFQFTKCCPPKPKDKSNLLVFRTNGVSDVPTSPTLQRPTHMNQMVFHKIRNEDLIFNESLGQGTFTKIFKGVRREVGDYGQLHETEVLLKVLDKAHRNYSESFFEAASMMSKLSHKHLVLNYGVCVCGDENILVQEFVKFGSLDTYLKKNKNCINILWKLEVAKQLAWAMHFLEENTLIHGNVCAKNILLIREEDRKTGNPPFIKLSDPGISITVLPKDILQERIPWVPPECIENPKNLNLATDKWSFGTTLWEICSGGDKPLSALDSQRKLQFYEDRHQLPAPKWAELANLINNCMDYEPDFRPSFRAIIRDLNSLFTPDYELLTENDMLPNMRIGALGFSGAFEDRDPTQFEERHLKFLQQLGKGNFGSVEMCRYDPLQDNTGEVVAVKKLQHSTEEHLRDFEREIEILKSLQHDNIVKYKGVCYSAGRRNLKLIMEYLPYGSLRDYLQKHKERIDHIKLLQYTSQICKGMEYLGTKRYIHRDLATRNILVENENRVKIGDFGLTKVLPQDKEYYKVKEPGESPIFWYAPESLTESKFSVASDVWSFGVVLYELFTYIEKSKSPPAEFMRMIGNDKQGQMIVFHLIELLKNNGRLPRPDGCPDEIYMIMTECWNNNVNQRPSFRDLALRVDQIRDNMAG

SMILES: CCn1nc(Nc2cc(OC3CCC(NC[C@@H](O)C(F)(F)F)CC3)cc3c2ncn3C)cc1C (stereo in doubt) [Example 7]
- JAK1 inhibition 2 hr post dosing (JAK1 [1]; 2 hr post dosing): 70.7%
- JAK1 inhibition 7 hr post dosing (JAK1 [1]; 7 hr post dosing): 61.0%
- IC50 (JAK1 [2]): 0.00543 ± 0.00093 µM
- IC50 (JAK3): 6.16 ± 2.02 µM
- Rat paw swelling % inhibition at 3 mpk ([3]; 3 mpk oral once a day day 12 to 25, naïve rat as 100% inhibition): 0%
- Rat paw swelling % inhibition at 10 mpk ([3]; 10 mpk oral once a day day 12 to 25, naïve rat as 100% inhibition): 69%
- Rat paw swelling % inhibition at 30 mpk ([3]; 30 mpk oral once a day day 12 to 25, naïve rat as 100% inhibition): 73%
- IC50 (JAK1 [4]): 4.17 ± 1.87 µM

SMILES: Cc1cc(Nc2cc(O[C@H]3CC[C@@H](NC[C@@H](O)C(F)F)CC3)cc3c2ncn3C)nn1C [Example 9, (2R)-3-{[cis-4-({4-[(1,5-Dimethyl-1H-pyrazol-3-yl)amino]-1-methyl-1H-benzimidazol-6-yl}oxy)cyclohexyl]amino}-1,1-difluoropropan-2-ol]
- IC50 (JAK1 [2]): 0.00535 ± 0.00023 µM
- IC50 (JAK3): 2.14 ± 0.72 µM
- IC50 (JAK2 [5]): 0.767 ± 0.039 µM
- IC50 (JAK2 [6]): 16.9 ± 4.5 µM
- IC50 (JAK1 [4]): 4.53 ± 2.09 µM

SMILES: Cn1cnc2c(Nc3cc[nH]n3)cc(O[C@H]3CC[C@@](C)(NC[C@@H](O)C(F)(F)F)CC3)cc21 [Example 8, (2R)-1,1,1-Trifluoro-3-[(cis-1-methyl-4-{[1-methyl-4-(1H-pyrazol-3-ylamino)-1H-benzimidazol-6-yl]oxy}cyclohexyl)amino]propan-2-ol]
- IC50 (JAK1 [2]): 0.00191 ± 0.00075 µM
- IC50 (JAK3): 1.17 ± 0.47 µM
- IC50 (JAK2 [5]): 0.239 ± 0.15 µM
- IC50 (JAK2 [6]): 9.63 ± 2.52 µM
- IC50 (JAK1 [4]): 3.13 ± 1.1 µM

SMILES: Cc1cc(Nc2cc(O[C@H]3CC[C@@H](NC[C@@H](O)C(F)(F)F)CC3)cc3c2ncn3C)nn1C[C@H](C)O [Example 4, (2R)-1,1,1-Trifluoro-3-[(cis-4-{[4-({1-[(2S)-2-hydroxypropyl]-5-methyl-1H-pyrazol-3-yl}amino)-1-methyl-1H-benzimidazol-6-yl]oxy}cyclohexyl)amino]propan-2-ol]
- inhibition at 30 mg/kg (JAK1 [1]; 2 hr post dosing, read-out: JAK1 inhibition 2 hr post dosing): 72%
- inhibition at 30 mg/kg (JAK1 [1]; 7 hr post dosing, read-out: JAK1 inhibition 7 hr post dosing): 22.3%
- inhibition at 30 mg/kg (JAK2 [7]; 2 hr post dosing, read-out: JAK2 inhibition 2 hr post dosing): 22.9%
- inhibition at 30 mg/kg (JAK2 [7]; 7 hr post dosing, read-out: JAK2 inhibition 7 hr post dosing): 20.1%

SMILES: Cn1cnc2c(Nc3ccn(-c4ccccn4)n3)cc(O[C@H]3CC[C@@H](NC[C@@H](O)C(F)(F)F)CC3)cc21 [Example 10, (2R)-1,1,1-Trifluoro-3-({cis-4-[(1-methyl-4-{[1-(pyridin-2-yl)-1H-pyrazol-3-yl]amino}-1H-benzimidazol-6-yl)oxy]cyclohexyl}amino)propan-2-ol]
- IC50 (JAK1 [2]): 0.00149 ± 0.00049 µM
- IC50 (JAK3): 0.66 ± 0.18 µM
- % inhibition of BMD loss in paw ([8]; 3 mpk oral daily for 14 days): 39%
- % inhibition of paw swelling ([8]; 3 mpk oral daily for 14 days): 26%
- % inhibition of BMD loss in paw ([8]; 10 mpk oral daily for 14 days): 81%
- % inhibition of paw swelling ([8]; 10 mpk oral daily for 14 days): 63%
- % inhibition of BMD loss in paw ([8]; 30 mpk oral daily for 14 days): 84%
- % inhibition of paw swelling ([8]; 30 mpk oral daily for 14 days): 73%
- IC50 (JAK2 [5]): 0.22 ± 0.12 µM
- IC50 (JAK2 [6]): 6.86 ± 2.13 µM
- IC50 (JAK1 [4]): 1.29 ± 0.64 µM

Reference: US10323019B2, “Pyrazolylaminobenzimidazole derivatives as JAK inhibitors” (Eli Lilly and Company, priority 2016, dated 2019)
